Earlier results as cited in patent publication US5618841A, “Composition of iodophor teat dip for the prevention of mastitis and a process for using the same” (priority 1994, dated 1997).

Experiments:
microorganism = settings: rank order
[1] = first ionization constant
[2] = 25° C.

O=C(O)CO [Glycolic acid]
relative antimicrobial strength, with respect to citric acid (microorganism): Mandelic acid>Lactic acid>Glycolic acid>Malic acid>Citric acid

CC(O)C(=O)O (stereo not drawn) [Lactic acid]
relative antimicrobial strength, with respect to citric acid (microorganism): Mandelic acid>Lactic acid>Glycolic acid>Malic acid>Citric acid

O=C(O)CC(O)C(=O)O (stereo not drawn) [Malic acid]
relative antimicrobial strength, with respect to citric acid (microorganism): Mandelic acid>Lactic acid>Glycolic acid>Malic acid>Citric acid

O=C(O)C(O)c1ccccc1 (stereo not drawn) [Mandelic acid]
relative antimicrobial strength, with respect to citric acid (microorganism): Mandelic acid>Lactic acid>Glycolic acid>Malic acid>Citric acid | pKa [1]: 3.39

II [elemental iodine]
solubility in water [2]: 0.03%
